From publication PMC5218480 (PLoS ONE, 2017)

System: MV-4-11 cells
Test: Gene expression microarray analysis (Affymetrix PrimeView) and GSEA
Assay type: cell-based, human
Set-up: RFU PODN (11730768_x_at) / Fold change /veh PODN (11730768_x_at) / RFU LINC00158 (11744669_a_at) / Fold change /veh LINC00158 (11744669_a_at) / RFU DUSP10 (11751237_a_at) / Fold change /veh DUSP10 (11751237_a_at) / RFU ID3 (11757404_x_at) / Fold change /veh ID3 (11757404_x_at) / RFU PLEKHG5 (11737974_s_at) / Fold change /veh PLEKHG5 (11737974_s_at) / RFU LRRC4B (11730491_at) / Fold change /veh LRRC4B (11730491_at) / RFU GIMAP4 (11747438_a_at) / Fold change /veh GIMAP4 (11747438_a_at) / RFU KRT8 (11758183_x_at) / Fold change /veh KRT8 (11758183_x_at) / RFU CNN1 (11734310_a_at) / Fold change /veh CNN1 (11734310_a_at) / RFU VPS37D (11726825_at) / Fold change /veh VPS37D (11726825_at) / RFU C10orf10 (11716522_x_at) / Fold change /veh C10orf10 (11716522_x_at) / RFU KIR2DL2 /// KIR2DL4 /// KIR2DL5A /// KIR2DL5B /// KIR2DS1 /// KIR2DS2 /// KIR2DS3 /// KIR2DS4 /// KIR3DL3 /// KIR3DL3 /// KIR3DS1 (11738374_at) / Fold change /veh KIR2DL2 /// KIR2DL4 /// KIR2DL5A /// KIR2DL5B /// KIR2DS1 /// KIR2DS2 /// KIR2DS3 /// KIR2DS4 /// KIR3DL3 /// KIR3DL3 /// KIR3DS1 (11738374_at) / RFU C1QL1 (11718748_at) / Fold change /veh C1QL1 (11718748_at) / RFU TMPRSS4 (11747572_a_at) / Fold change /veh TMPRSS4 (11747572_a_at) / RFU HAMP (11756126_x_at) / Fold change /veh HAMP (11756126_x_at) / RFU RNFT2 (11725882_a_at) / Fold change /veh RNFT2 (11725882_a_at) / RFU NR4A2 (11747474_a_at) / Fold change /veh NR4A2 (11747474_a_at) / RFU ABCC12 (11746883_a_at) / Fold change /veh ABCC12 (11746883_a_at) / RFU TMEM136 (11760407_x_at) / Fold change /veh TMEM136 (11760407_x_at) / RFU CLDN22 /// WWC2 (11732394_at) / Fold change /veh CLDN22 /// WWC2 (11732394_at) / RFU HLA-DPB1 (11760878_x_at) / Fold change /veh HLA-DPB1 (11760878_x_at) / RFU SPINT1 (11716480_a_at) / Fold change /veh SPINT1 (11716480_a_at) / RFU GAP43 (11754022_s_at) / Fold change /veh GAP43 (11754022_s_at) / RFU A4GNT (11735810_at) / Fold change /veh A4GNT (11735810_at) / RFU PRB3 (11715151_x_at) / Fold change /veh PRB3 (11715151_x_at) / RFU TUBB4B (11761932_at) / Fold change /veh TUBB4B (11761932_at) / RFU CAPN14 (11732068_a_at) / Fold change /veh CAPN14 (11732068_a_at) / RFU TMCC2 (11721928_a_at) / Fold change /veh TMCC2 (11721928_a_at) / RFU IRGQ (11745062_a_at) / Fold change /veh IRGQ (11745062_a_at) / RFU FAM174B (11720279_a_at) / Fold change /veh FAM174B (11720279_a_at) / RFU TMPRSS4 (11748680_a_at) / Fold change /veh TMPRSS4 (11748680_a_at) / RFU FAM212B (11763350_a_at) / Fold change /veh FAM212B (11763350_a_at) / RFU PLEKHG5 (11743358_a_at) / Fold change /veh PLEKHG5 (11743358_a_at) / RFU ZSCAN30 (11745921_a_at) / Fold change /veh ZSCAN30 (11745921_a_at) / RFU CMKLR1 (11741424_a_at) / Fold change /veh CMKLR1 (11741424_a_at) / RFU LOC101060620 /// MAPK8IP1 (11723275_at) / Fold change /veh LOC101060620 /// MAPK8IP1 (11723275_at) / RFU SPTSSB (11747773_x_at) / Fold change /veh SPTSSB (11747773_x_at) / RFU PRSS12 (11739890_at) / Fold change /veh PRSS12 (11739890_at) / RFU BIN1 (11741810_x_at) / Fold change /veh BIN1 (11741810_x_at) / RFU WNT11 (11732464_a_at) / Fold change /veh WNT11 (11732464_a_at) / RFU C10orf10 (11716521_a_at) / Fold change /veh C10orf10 (11716521_a_at) / RFU C5orf56 (11738089_at) / Fold change /veh C5orf56 (11738089_at) / RFU CYB561 (11721691_x_at) / Fold change /veh CYB561 (11721691_x_at) / RFU ANKRD19P (11752326_a_at) / Fold change /veh ANKRD19P (11752326_a_at) / RFU OR2T12 /// OR2T33 /// OR2T8 (11738714_s_at) / Fold change /veh OR2T12 /// OR2T33 /// OR2T8 (11738714_s_at) / RFU VCAN (11748164_a_at) / Fold change /veh VCAN (11748164_a_at) / RFU JSRP1 (11732532_at) / Fold change /veh JSRP1 (11732532_at) / RFU KRTAP10-11 (11738290_x_at) / Fold change /veh KRTAP10-11 (11738290_x_at) / RFU MYO3A (11730013_a_at) / Fold change /veh MYO3A (11730013_a_at) / RFU EBF3 (11725865_a_at) / Fold change /veh EBF3 (11725865_a_at) / RFU CAMK2N1 (11719241_x_at) / Fold change /veh CAMK2N1 (11719241_x_at) / RFU C5orf56 (11738088_a_at) / Fold change /veh C5orf56 (11738088_a_at) / RFU OLFML3 (11715873_a_at) / Fold change /veh OLFML3 (11715873_a_at) / RFU LOC100653217 /// NTM (11731650_a_at) / Fold change /veh LOC100653217 /// NTM (11731650_a_at) / RFU MAPK11 (11762145_a_at) / Fold change /veh MAPK11 (11762145_a_at) / RFU FIZ1 (11724087_x_at) / Fold change /veh FIZ1 (11724087_x_at) / RFU OASL (11726364_x_at) / Fold change /veh OASL (11726364_x_at) / RFU SOX15 (11748057_x_at) / Fold change /veh SOX15 (11748057_x_at) / RFU CD79A (11719716_a_at) / Fold change /veh CD79A (11719716_a_at) / RFU HIST1H1D (11736915_at) / Fold change /veh HIST1H1D (11736915_at) / RFU CASKIN2 (11723855_a_at) / Fold change /veh CASKIN2 (11723855_a_at) / RFU LOC730098 (11760151_x_at) / Fold change /veh LOC730098 (11760151_x_at) / RFU OR4N2 (11742367_at) / Fold change /veh OR4N2 (11742367_at) / RFU PRRT2 (11749266_a_at) / Fold change /veh PRRT2 (11749266_a_at) / RFU SNX32 (11753110_a_at) / Fold change /veh SNX32 (11753110_a_at) / RFU CDHR5 (11726645_a_at) / Fold change /veh CDHR5 (11726645_a_at) / RFU RCAN1 (11760418_a_at) / Fold change /veh RCAN1 (11760418_a_at) / RFU FAM167A (11723789_a_at) / Fold change /veh FAM167A (11723789_a_at) / RFU FAM26E (11764081_at) / Fold change /veh FAM26E (11764081_at) / RFU ISYNA1 (11749810_s_at) / Fold change /veh ISYNA1 (11749810_s_at) / RFU ACY1 (11761880_at) / Fold change /veh ACY1 (11761880_at) / RFU 11764098_at / Fold change /veh 11764098_at / RFU SAMD14 (11745864_x_at) / Fold change /veh SAMD14 (11745864_x_at) / RFU NPB (11741838_a_at) / Fold change /veh NPB (11741838_a_at) / RFU TMPRSS6 (11731388_a_at) / Fold change /veh TMPRSS6 (11731388_a_at) / RFU KRTAP10-2 (11738614_at) / Fold change /veh KRTAP10-2 (11738614_at) / RFU ARHGAP8 /// PRR5-ARHGAP8 (11727945_x_at) / Fold change /veh ARHGAP8 /// PRR5-ARHGAP8 (11727945_x_at) / RFU KRTAP5-7 /// NADSYN1 (11734609_at) / Fold change /veh KRTAP5-7 /// NADSYN1 (11734609_at) / RFU RASL12 (11751679_a_at) / Fold change /veh RASL12 (11751679_a_at) / RFU CDKN2B (11736163_a_at) / Fold change /veh CDKN2B (11736163_a_at) / RFU PRF1 (11729649_at) / Fold change /veh PRF1 (11729649_at) / RFU, ZNF638 /// ZNF638-IT1 / Fold change vs veh, ZNF638 /// ZNF638-IT1 / RFU, PANK3 / Fold change vs veh, PANK3 / RFU, SH3YL1 / Fold change vs veh, SH3YL1 / RFU, ZEB2 / Fold change vs veh, ZEB2 / RFU, NRIP1 / Fold change vs veh, NRIP1 / RFU, PTTG1IP / Fold change vs veh, PTTG1IP / RFU, CAPN2 / Fold change vs veh, CAPN2 / RFU, MED14 / Fold change vs veh, MED14 / RFU, SNORA58 / Fold change vs veh, SNORA58 / RFU, C1orf63 / Fold change vs veh, C1orf63 / RFU, LRRFIP1 / Fold change vs veh, LRRFIP1 / RFU, NDUFAF7 / Fold change vs veh, NDUFAF7 / RFU, SLC12A2 / Fold change vs veh, SLC12A2 / RFU, IBTK / Fold change vs veh, IBTK / RFU, ESF1 / Fold change vs veh, ESF1 / Fold change vs veh, TMEM50B / RFU, TAOK1 / Fold change vs veh, TAOK1 / RFU, ACBD3 / Fold change vs veh, ACBD3 / RFU, TMA16 / Fold change vs veh, TMA16 / RFU, RWDD3 / Fold change vs veh, RWDD3 / RFU, BCAT1 / Fold change vs veh, BCAT1 / RFU, EDEM3 / Fold change vs veh, EDEM3 / RFU, TMEM33 / Fold change vs veh, TMEM33 / RFU, WDR75 / Fold change vs veh, WDR75 / RFU, AHCTF1 / Fold change vs veh, AHCTF1 / RFU, TFRC / Fold change vs veh, TFRC / RFU, ZDHHC17 / Fold change vs veh, ZDHHC17 / RFU, NOM1 / Fold change vs veh, NOM1 / RFU, ARL8B / Fold change vs veh, ARL8B / RFU, ZBTB11 / Fold change vs veh, ZBTB11 / RFU, TAMM41 / Fold change vs veh, TAMM41 / RFU, KIAA1704 /// LOC100996395 / Fold change vs veh, KIAA1704 /// LOC100996395 / RFU, ING1 / Fold change vs veh, ING1 / RFU, TRMT61B / Fold change vs veh, TRMT61B / RFU, FUBP3 / Fold change vs veh, FUBP3 / RFU, TP53 / Fold change vs veh, TP53 / RFU, TNKS2 / Fold change vs veh, TNKS2 / RFU, ZFP14 / Fold change vs veh, ZFP14 / RFU, ACTR2 / Fold change vs veh, ACTR2 / RFU, PPP3R1 / Fold change vs veh, PPP3R1 / RFU, PIK3R1 / Fold change vs veh, PIK3R1 / RFU, HNRNPA1 / Fold change vs veh, HNRNPA1 / RFU, RNF170 / Fold change vs veh, RNF170 / RFU, ZNF28 / Fold change vs veh, ZNF28 / RFU, RNGTT / Fold change vs veh, RNGTT / RFU, OGT / Fold change vs veh, OGT / RFU, BRD1 / Fold change vs veh, BRD1 / RFU, MARS / Fold change vs veh, MARS / RFU, ZNF655 / Fold change vs veh, ZNF655 / RFU, FAHD1 / Fold change vs veh, FAHD1 / RFU, BDP1 / Fold change vs veh, BDP1 / RFU, LRRCC1 / Fold change vs veh, LRRCC1 / RFU, ARID1A / Fold change vs veh, ARID1A / RFU, ZNF146 / Fold change vs veh, ZNF146 / RFU, ZNF330 / Fold change vs veh, ZNF330 / RFU, GPN3 / Fold change vs veh, GPN3 / RFU, C9orf123 / Fold change vs veh, C9orf123 / RFU, N4BP2L2 / Fold change vs veh, N4BP2L2 / RFU, ARFIP1 / Fold change vs veh, ARFIP1 / RFU, FAM179B / Fold change vs veh, FAM179B / RFU, BCL10 / Fold change vs veh, BCL10 / RFU, UHRF1BP1L / Fold change vs veh, UHRF1BP1L / RFU, BET1 / Fold change vs veh, BET1 / RFU, CNOT2 / Fold change vs veh, CNOT2 / RFU, ZNF268 / Fold change vs veh, ZNF268 / Fold change vs veh, ZNF507 / RFU, DGCR2 / Fold change vs veh, DGCR2 / RFU, WDSUB1 / Fold change vs veh, WDSUB1 / Fold change vs veh, HSP90B1 /// MIR3652 / RFU, ADSS / Fold change vs veh, ADSS / RFU, GK / Fold change vs veh, GK / RFU, ZNF148 / Fold change vs veh, ZNF148 / RFU, TAF9 / Fold change vs veh, TAF9 / RFU, SLC1A5 / Fold change vs veh, SLC1A5 / RFU, SLMO2 / Fold change vs veh, SLMO2 / RFU, ABCC4 / Fold change vs veh, ABCC4 / RFU, LOC101060439 /// RAP1B / Fold change vs veh, LOC101060439 /// RAP1B / RFU, RFX7 / Fold change vs veh, RFX7 / RFU, GTPBP10 / Fold change vs veh, GTPBP10 / RFU, CNEP1R1 / Fold change vs veh, CNEP1R1 / RFU, BIVM-ERCC5 /// ERCC5 / Fold change vs veh, BIVM-ERCC5 /// ERCC5 / RFU, ILF3 / Fold change vs veh, ILF3 / RFU 11762660_at / Fold change /veh 11762660_at / RFU VCAN (11757783_s_at) / Fold change /veh VCAN (11757783_s_at) / RFU DDX43 (11728927_at) / Fold change /veh DDX43 (11728927_at) / RFU KRT8 (11758188_x_at) / Fold change /veh KRT8 (11758188_x_at) / RFU NKD1 (11759106_at) / Fold change /veh NKD1 (11759106_at) / RFU SRD5A1 (11742802_a_at) / Fold change /veh SRD5A1 (11742802_a_at) / RFU TPSAB1 /// TPSB2 (11721975_s_at) / Fold change /veh TPSAB1 /// TPSB2 (11721975_s_at) / RFU GSTM3 (11746129_a_at) / Fold change /veh GSTM3 (11746129_a_at) / RFU IL23R (11737362_x_at) / Fold change /veh IL23R (11737362_x_at) / RFU TMEM51 (11727254_a_at) / Fold change /veh TMEM51 (11727254_a_at) / RFU PIWIL2 (11732686_x_at) / Fold change /veh PIWIL2 (11732686_x_at) / RFU ORM1 (11744905_x_at) / Fold change /veh ORM1 (11744905_x_at) / RFU CCDC152 (11743942_at) / Fold change /veh CCDC152 (11743942_at) / RFU ECM1 (11717891_a_at) / Fold change /veh ECM1 (11717891_a_at) / RFU IL23R (11748794_a_at) / Fold change /veh IL23R (11748794_a_at) / RFU TNFAIP8L3 (11732012_x_at) / Fold change /veh TNFAIP8L3 (11732012_x_at) / RFU MBOAT4 (11741988_at) / Fold change /veh MBOAT4 (11741988_at) / RFU 11764193_at / Fold change /veh 11764193_at / RFU TMEM53 (11763286_at) / Fold change /veh TMEM53 (11763286_at) / RFU MAGEB2 (11727129_at) / Fold change /veh MAGEB2 (11727129_at) / RFU TMEM200A (11744735_a_at) / Fold change /veh TMEM200A (11744735_a_at) / RFU CCDC152 (11751479_a_at) / Fold change /veh CCDC152 (11751479_a_at) / RFU FAM211A (11726209_a_at) / Fold change /veh FAM211A (11726209_a_at) / RFU RGS16 (11746705_a_at) / Fold change /veh RGS16 (11746705_a_at) / RFU VCAN (11755009_s_at) / Fold change /veh VCAN (11755009_s_at) / RFU RHOB (11743442_s_at) / Fold change /veh RHOB (11743442_s_at) / RFU RGS16 (11720943_a_at) / Fold change /veh RGS16 (11720943_a_at) / RFU RGS16 (11720944_at) / Fold change /veh RGS16 (11720944_at) / RFU, VPS4B / Fold change vs veh, VPS4B / RFU, CREB1 / Fold change vs veh, CREB1 / RFU, DNAJC13 / Fold change vs veh, DNAJC13 / RFU, GNAQ / Fold change vs veh, GNAQ / RFU, CDK5R1 / Fold change vs veh, CDK5R1 / RFU, ZRANB3 / Fold change vs veh, ZRANB3 / RFU, CUL4A / Fold change vs veh, CUL4A / RFU, CCNY / Fold change vs veh, CCNY / RFU, UFL1 / Fold change vs veh, UFL1 / RFU, COG3 / Fold change vs veh, COG3 / RFU, DIAPH2 / Fold change vs veh, DIAPH2 / RFU, SKA2 / Fold change vs veh, SKA2 / RFU, AFF3 / Fold change vs veh, AFF3 / RFU, LMF1 / Fold change vs veh, LMF1 / RFU, IPO11 / Fold change vs veh, IPO11 / RFU, DFFB / Fold change vs veh, DFFB / RFU, FOXP1 / Fold change vs veh, FOXP1 / RFU, CARD8 / Fold change vs veh, CARD8 / RFU, STRN3 / Fold change vs veh, STRN3 / RFU, ADK / Fold change vs veh, ADK / RFU, RASSF2 / Fold change vs veh, RASSF2 / RFU, WIPF1 / Fold change vs veh, WIPF1 / RFU, LARP1B / Fold change vs veh, LARP1B / RFU, RASA1 / Fold change vs veh, RASA1 / RFU, RB1 / Fold change vs veh, RB1 / RFU, PPFIA1 / Fold change vs veh, PPFIA1 / RFU, MAT2A / Fold change vs veh, MAT2A / RFU, CCT5 / Fold change vs veh, CCT5 / RFU, WDR92 / Fold change vs veh, WDR92 / RFU, CUX1 / Fold change vs veh, CUX1 / RFU, TTC7A / Fold change vs veh, TTC7A / RFU, TMEM135 / Fold change vs veh, TMEM135 / RFU, DEPTOR / Fold change vs veh, DEPTOR / RFU, CPM / Fold change vs veh, CPM / RFU, DNAJB6 / Fold change vs veh, DNAJB6 / RFU, CACNA2D3 / Fold change vs veh, CACNA2D3 / RFU, DTX4 / Fold change vs veh, DTX4 / RFU, TFCP2 / Fold change vs veh, TFCP2 / RFU, GMCL1 /// GMCL1P1 / Fold change vs veh, GMCL1 /// GMCL1P1 / RFU, AEBP2 / Fold change vs veh, AEBP2 / RFU, SNHG1 /// SNORD22 /// SNORD25 /// SNORD26 /// SNORD27 /// SNORD28 /// SNORD29 /// SNORD31 / Fold change vs veh, SNHG1 /// SNORD22 /// SNORD25 /// SNORD26 /// SNORD27 /// SNORD28 /// SNORD29 /// SNORD31 / Fold change (Aza/veh), C12orf56 (ProbeSet 11735607_a_at) / Fold change (ACY-1035/veh), C12orf56 (ProbeSet 11735607_a_at) / Fold change (Aza/veh), FGFR1OP (ProbeSet 11751329_s_at) / Fold change (ACY-1035/veh), FGFR1OP (ProbeSet 11751329_s_at) / Fold change (Aza/veh), VPS36 (ProbeSet 11739960_a_at) / Fold change (ACY-1035/veh), VPS36 (ProbeSet 11739960_a_at) / RFU SYPL1 (11715823_x_at) / Fold change /veh SYPL1 (11715823_x_at) / RFU IGFBP7 (11715501_s_at) / Fold change /veh IGFBP7 (11715501_s_at) / RFU REEP3 (11722064_at) / Fold change /veh REEP3 (11722064_at) / RFU IGLL1 (11728026_x_at) / Fold change /veh IGLL1 (11728026_x_at): dose or concentration left out as unconfirmed
Details: ProbeSet 11740011_at; LIST B

Nc1ncn([C@@H]2O[C@H](CO)[C@@H](O)[C@H]2O)c(=O)n1 [azacitidine]
Fold change vs veh, ZFP14: 0.92
